Results from US20040005537A1, “Method of identifying toxic agents using differential gene expression” (priority 2000, published 2004).

Test system: rat heart tissue
Assay: GENECALLING differential gene expression analysis after dosing of serotonin modulating agents
Type: in vivo, Sprague Dawley rats
How it was run: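 GENECALLING profiling of cDNA from total RNA, keeping gene fragments modulated beyond ±1.5-fold. Tissue collected 24 h after final dosing of serotonin modulating agents; control rats received sterile water or canola oil.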

CCN[C@@H](C)Cc1cccc(C(F)(F)F)c1 [dexfenfluramine]
Effects on Transcription Level: Novel gene fragment, 524 bp, 86% SI to mouse F-box protein FBX6b [AF176526] (CARDIOTOX 1): +1.5 fold
Effects on Transcription Level: Novel gene fragment, 306 bp, 91% SI to mouse low density lipoprotein receptor related protein 4 [AB013874] (CARDIOTOX 2): −1.8 fold
Effects on Transcription Level: Novel gene fragment, 540 bp, 97% SI to mouse skeletal muscle alpha-actin [X03766] (CARDIOTOX 3): +2.3 fold
Effects on Transcription Level: Novel gene fragment, 80 bp (CARDIOTOX 4): −1.6 fold
Effects on Transcription Level: Novel gene fragment, 957 bp, 99% SI to kidney injury associated moleculer HW036 [V80591] (CARDIOTOX 5): −1.6 fold
Effects on Transcription Level: Novel gene fragment, 282 bp, 85% SI to human KIAA1515 protein [AB040948] (CARDIOTOX 6): −1.7 fold
Effects on Transcription Level: Novel gene fragment, 405 bp, 88% SI to human 2-oxoglutarate dehydrogenase [D10523] (CARDIOTOX 7): +1.5 fold
Effects on Transcription Level: UCP2 (CARDIOTOX 8, GenBank AB010743): −1.6 fold
Effects on Transcription Level: Plasma membrane Ca2 + ATPase-isoform 1 (CARDIOTOX 9, GenBank J03753): −1.6 fold
Effects on Transcription Level: Novel gene fragment, 242 bp, 97% SI to mouse HSP86 heat-shock protein [X16857] (CARDIOTOX 10): +1.4 fold
Effects on Transcription Level: Novel gene fragment, 280 bp, 65% SI to human TRF1-interacting, ankyrin-related ADP-ribose polymerase [AF082556] (CARDIOTOX 11): +1.4 fold
Effects on Transcription Level: Novel gene fragment, 348 bp, 88% SI to mouse Sec61 protein complex gamma subunit [U11027] (CARDIOTOX 12): +1.3 fold
Effects on Transcription Level: Novel gene fragment 553 bp, 93% SI to mouse Sid329 [AB024984] (CARDIOTOX 13): +1.4 fold
Effects on Transcription Level: Kruppel-like transcription factor (CARDIOTOX 14, GenBank AB020759): +1.3 fold
Effects on Transcription Level: Ribosomal protein L3 (CARDIOTOX 15, GenBank X62166): +1.4 fold
Effects on Transcription Level: Glucose-regulated protein (GRP) 75 (CARDIOTOX 16, GenBank S78556): +1.4 fold
Effects on Transcription Level: Immunoglobulin heavy chain binding protein (BiP) (CARDIOTOX 17, GenBank M14050): +1.4 fold
Effects on Transcription Level: Membrane-spannining proteoglycan NG2 (CARDIOTOX 18, GenBank X56541): −1.4 fold
Effects on Transcription Level: Novel gene fragment, 1294 bp, 96% SI to mouse Sui 1 (elF) homolog [AF129888] (CARDIOTOX 19): +1.6 fold
Effects on Transcription Level: Novel gene fragment, 723 bp, 85% SI to human translation initiation factor elF3 p40 subunit [U54559] (CARDIOTOX 20): +1.6 fold
Effects on Transcription Level: Novel gene fragment, 1324 bp, 76% SI to human flavoprotein subunit of complex II [D30648] (CARDIOTOX 21): +1.5 fold
Effects on Transcription Level: Novel gene fragment, 852 bp, 81% SI to human vacuolar proton-ATPase subunit M9.2 [Y15286] (CARDIOTOX 22): +1.5 fold
Effects on Transcription Level: Novel gene fragment, 178 bp, 91% SI to mouse myosin light chain-2 isoform MLC-2a [S70785] (CARDIOTOX 23): +1.6 fold
Effects on Transcription Level: Novel gene fragment, 167 bp, 90% SI to mouse Rab20 [X80332] (CARDIOTOX 24): +1.7 fold
Effects on Transcription Level: Novel gene fragment, 1070 bp, 80% SI to human muscle-specific protein [AF249873] (CARDIOTOX 25): +1.5 fold
Effects on Transcription Level: Novel gene fragment, 1143 bp, 82% SI to human sarcoma amplified sequence (SAS) [U01160] (CARDIOTOX 26): +1.7 fold
Effects on Transcription Level: Novel gene fragment, 74 bp,75% SI to human secreted protein [X30160] (from patent database)/[X97578] (from patent database)/potential cytokine) (CARDIOTOX 27): +1.5 fold
Effects on Transcription Level: Novel gene fragment, 408 bp, 90% SI to human CGI-07 protein [AF132941] (CARDIOTOX 28): +1.6 fold
Effects on Transcription Level: Novel gene fragment, 618 bp, 95% SI to rat progression related cDNA, ZNPE-120 3′ end partial sequence [patent database X90805] (CARDIOTOX 29): +1.5 fold
Effects on Transcription Level: Novel gene fragment, 717 bp (CARDIOTOX 30): +1.5 fold
Effects on Transcription Level: Novel gene fragment, 546 bp (CARDIOTOX 31): +1.8 fold
Effects on Transcription Level: Novel gene fragment, 920 bp, 91% SI to human HSPC061 [AF161546] (CARDIOTOX 32): +1.5 fold
Effects on Transcription Level: Novel gene fragment, 203 bp, 92% SI to rabbit sarcoplasmic reticulum glycoprotein [J04480] (CARDIOTOX 33): −1.7 fold
Effects on Transcription Level: Novel gene fragment, 178 bp, 68% SI to mouse IgG receptor (beta-Fc-gamma-RII)[M63159] (CARDIOTOX 34): +1.6 fold
Effects on Transcription Level: Ribosomal protein L6 (CARDIOTOX 35, GenBank X87107): +1.6 fold
Effects on Transcription Level: CAP2 protein (adenylyl cyclase-associated protein 2) (CARDIOTOX 36, GenBank U31935): +2.0 fold
Effects on Transcription Level: Alpha-platelet-derived growth factor receptor (CARDIOTOX 37, GenBank M63837): +1.6 fold
Effects on Transcription Level: Rab GD1 alpha protein (CARDIOTOX 38, GenBank X74402): −1.6 fold
Effects on Transcription Level: PKC-zeta-interacting protein (CARDIOTOX 39, GenBank Y08355): +1.6 fold
Effects on Transcription Level: ERK or MAP kinase (CARDIOTOX 40, GenBank X65198): +1.5 fold
Effects on Transcription Level: Peroxisomal multifunctional enzyme type II (CARDIOTOX 41, GenBank U37486): +1.5 fold
Effects on Transcription Level: HBP23 (heme-binding protein 23 kDa) (CARDIOTOX 42, GenBank D30035): +1.7 fold
Effects on Transcription Level: Caveolae-associated protein (CARDIOTOX 43, GenBank U90725): +3.0 fold
Effects on Transcription Level: Prenylated rab acceptor 1 (PRA1) (CARDIOTOX 44, GenBank AF025506): +1.5 fold
Effects on Transcription Level: Novel gene fragment, 337 bp, 88% SI to rabbit cardiac ryanodine receptor (RyR-2)[U50465] (CARDIOTOX 45): −1.7 fold
Effects on Transcription Level: Novel gene fragment, 81 bp, 85% SI to human titin [X90568] (CARDIOTOX 46): −2.2 fold
Effects on Transcription Level: Novel gene fragment, 428 bp, 86% SI to human titin [X90568] (CARDIOTOX 47): −2.0 fold
Effects on Transcription Level: Novel gene fragment, 374 bp, 88% SI to human titin [X90568] (CARDIOTOX 48): −2.3 fold
Effects on Transcription Level: Novel gene fragment, 428 bp, 85% SI to human titin [90568] (CARDIOTOX 49): −2.2 fold
Effects on Transcription Level: Novel gene fragment, 1216 bp, 93% SI to mouse mircotubule-associated protein (MAP) 1B protein [AF115776] (CARDIOTOX 50): −1.9 fold
Effects on Transcription Level: Novel gene fragment, 1115 bp, 83% SI to human KIAA0549 protein [AB011121] (CARDIOTOX 51): −2.0 fold
Effects on Transcription Level: Novel gene fragment, 153 bp (CARDIOTOX 52): −1.7 fold
Effects on Transcription Level: Novel gene fragment, 89 bp, 93% SI to human putative glialblastoma cell differentiation-related protein (GBDR1) [AF068195] (CARDIOTOX 53): −1.6 fold
Effects on Transcription Level: Rho-associated kinase beta (CARDIOTOX 54, GenBank U61266): −1.9 fold
Effects on Transcription Level: Adenylate kinase 3 (CARDIOTOX 55, GenBank D13062): +1.5 fold
Effects on Transcription Level: Amyloid beta-peptide binding protein (CARDIOTOX 56, GenBank AF049878): +1.5 fold
Effects on Transcription Level: Mitochondrial adenine nuleotide translocator (CARDIOTOX 57, GenBank D12771): +1.5 fold
Effects on Transcription Level: Novel gene fragment, 710 bp, 94% SI to mouse chromatin structural protein homolog Supt5 hp (Supt5 h)[U88539] (CARDIOTOX 58): +3.8 fold
Effects on Transcription Level: Novel gene fragment, 186 bp, 66% SI to human N-acetylglucosaminyltransferase 1 (GlcNAc-TI)[M55621] (CARDIOTOX 60): −1.7 fold
Effects on Transcription Level: Novel gene fragment, 238 bp, 95% SI to mouse MAP kinase-activated protein kinase 2 [X76850] (CARDIOTOX 61): −2.1 fold
Effects on Transcription Level: Novel gene fragment, 173 bp, 70% SI to G protein-coupled receptor kinase GRK4 [X97568] (CARDIOTOX 62): −6.1 fold
Effects on Transcription Level: Novel gene fragment, 133 bp, 77% SI to human apoptosis related protein hSARP3 [patent database: V19114] (CARDIOTOX 63): −3.4 fold
Effects on Transcription Level: Novel gene fragment, 477 bp, 98% SI to peroxisomal phytanoyl-CoA hydroxylase (PHYH) [AF121345] (CARDIOTOX 64): +5.0 fold
Effects on Transcription Level: Novel gene fragment, 413 bp, 95% SI to mouse dihydrolipoamide dehydrogenase (Dld) [U73445] (CARDIOTOX 65): +1.9 fold
Effects on Transcription Level: Novel gene fragment, 726 bp, 76% SI to human succinate dehydrogenase flavoprotein subunit (SDH) [L21936] (CARDIOTOX 66): −4.1 fold
Effects on Transcription Level: Novel gene fragment, 440 bp, 92% SI to mouse cytochrome c oxidase Vllc [X52940] (CARDIOTOX 67): +3.6 fold
Effects on Transcription Level: Novel gene fragment, 276 bp, 80% SI to human titin [X90568] (CARDIOTOX 68): −11.9 fold
Effects on Transcription Level: Novel gene fragment, 149 bp, 70% SI to human titin [X90568] (CARDIOTOX 69): −5.5 fold
Effects on Transcription Level: Novel gene fragment, 467 bp, 94% SI to mouse gelsolin [J04953] (CARDIOTOX 70): −3.2 fold
Effects on Transcription Level: Novel gene fragment, 535 bp, 90% SI to mouse slow/cardiac troponin C [M29793] (CARDIOTOX 71): −2.0 fold
